Results as given in patent US7622497B2, “Derivatives of gambogic acid and analogs as activators of caspases and inducers of apoptosis” (Cytovia, Inc., priority 2003, dated 2009).

How the values were obtained:
T-47D = experiment: Caspase cascade activation (DEVD-R110 fluorogenic substrate) in T-47D cells; format: cell-based, Human; settings: 24 h incubation; for EC50: Homo sapiens, T47D, read-out: Caspase potency EC50 T-47D; for Caspase activity (Ratio) T-47D: ratio of net RFU of compound to control, 0.16 to 10 μM final
Protocol: (§1) Human breast cancer cell lines T-47D and DLD were grown according to media component mixtures designated by American Type Culture Collection+10% FCS Invitrogen Corporation), in a 5% CO2-95% humidity incubator at 37° C. T-47D and DLD cells were maintained at a cell density between 30 and 80% confluency and for HL-60 at a cell density of 0.1 to 0.6×10^6 cells/ml. Cells were harvested at 600×g and resuspended at 0.65×10^6 cells/mL into appropriate media+10% FCS. An aliquot of 45 μl of cells was added to a well of a 96-well microtiter plate containing 5 μl of a 10% DMSO in RPMI-1640 media solution containing 1.6 to 100 μM of novel derivative of gambogic acid (0.16 to 10 μM final). An aliquot of 45 μl of cells was added to a well of a 96-well microtiter plate containing 5 μl of a 10%. DMSO in RPMI-1640 media solution without test compound as the control sample. The samples were mixed by agitation and then incubated at 37° C. for 24 h in a 5% CO2-95% humidity incubator. After incubation, the samples were removed from the incubator and 50 μl of a solution containing 20 μM of N-(Ac-DEVD)-N′-ethoxycarbonyl-R110 fluorogenic substrate SEQ ID NO:1 (Cytovia, Inc.; U.S. Pat. No. 6,335,429), 20% sucrose (Sigma), 20 mM DTT (Sigma), 200 mM NaCl (Sigma), 40 mM Na PIPES buffer pH 7.2 (Sigma), and 500 μg/ml lysolecithin (Calbiochem) was added. The samples were mixed by agitation and incubated at room temperature. Using a fluorescent plate reader (Model 1420 Wallac Instruments), an initial reading (T=0) was made approximately 1-2 min after addition of the substrate solution, employing excitation at 485 nm and emission at 530 nm, to determine the background fluorescence of the control sample. After approximately 3 h of incubation, the samples were read for fluorescence as above (T=3 h).
(§2) The Relative Fluorescence Unit values (RFU) were used to calculate the sample readings as follows: RFU(T=3h)−Control RFU(T=0)=Net RFU(T=3h)
(§3) The activity of caspase cascade activation was determined by the ratio of the net RFU value for derivatives of gambogic acid to that of control samples. The EC50 (nM) was determined by a sigmoidal dose-response calculation (Prism 2.0, GraphPad Software Inc.).

DLD [1] = experiment: Caspase cascade activation (DEVD-R110 fluorogenic substrate) in DLD cells; format: cell-based, Human; settings: 24 h incubation; for EC50: Homo sapiens, read-out: Caspase potency EC50 DLD; for Caspase activity (Ratio) DLD: ratio of net RFU of compound to control, 0.16 to 10 μM final
Protocol: as §1, §2, §3

HEK293T = experiment: Inhibition of cell proliferation (GI50), HEK293T; format: cell-based; settings: Homo sapiens, HEK-293T; HEK293T cells, 48 h, CellTiter 96 AQueous
Protocol: (§4) T-47D, DLD-1, MX-1, SW620, H1299, HEK293T and HEK293H cells were grown and harvested as in Example 11. An aliquot of 90 μL of cells (2.2×10^4 cells/mL) was added to a well of a 96-well microtiter plate containing 10 μl of a 10% DMSO in RPMI-1640 media solution containing 1 nM to 100 μM of novel derivative of gambogic acid (Example 2; 0.1 nM to 10 μM final). An aliquot of 90 μL of cells was added to a well of a 96-well microtiter plate containing 10 μL of a 10% DMSO in RPMI-1640 media solution without compound as the control sample for maximal cell proliferation (AMax). The samples were mixed by agitation and then incubated at 37° C. for 48 h in a 5% CO2-95% humidity incubator. After incubation, the samples were removed from the incubator and 20 μL of CellTiter 96 AQUEOUS One Solution Cell Proliferation™ reagent (Promega) was added. The samples were mixed by agitation and incubated at 37° C. for 2-4 h in a 5% CO2-95% humidity incubator. Using an absorbance plate reader (Model 1420 Wallac Instruments), an initial reading (T=0) was made approximately 1-2 min after addition of the solution, employing absorbance at 490 nm. This determines the possible background absorbance of the test compounds. No absorbance for the derivative of gambogic acid was found at 490 nm. After the 2-4 h incubation, the samples were read for absorbance as above (ATest). […]

T47D = experiment: Inhibition of cell proliferation (GI50), T47D; format: cell-based; settings: Homo sapiens; T47D cells, 48 h, CellTiter 96 AQueous
Protocol: as §4

H1299 = experiment: Inhibition of cell proliferation (GI50), H1299; format: cell-based; settings: Homo sapiens, NCI-H1299; H1299 cells, 48 h, CellTiter 96 AQueous
Protocol: as §4

DLD [2] = experiment: Inhibition of cell proliferation (GI50), DLD; format: cell-based; settings: Homo sapiens; DLD cells, 48 h, CellTiter 96 AQueous
Protocol: as §4

HEK293H = experiment: Inhibition of cell proliferation (GI50), HEK293H; format: cell-based; settings: HEK293-H; HEK293H cells, 48 h, CellTiter 96 AQueous
Protocol: as §4

MX-1 = experiment: Inhibition of cell proliferation (GI50), MX-1; format: cell-based; settings: Homo sapiens, MX1; MX-1 cells, 48 h, CellTiter 96 AQueous
Protocol: as §4

SW620 = experiment: Inhibition of cell proliferation (GI50), SW620; format: cell-based; settings: Homo sapiens, SW-620; SW620 cells, 48 h, CellTiter 96 AQueous
Protocol: as §4

With `CC(C)=CCCC1(C)C=Cc2c(O)c3c(c(CC=C(C)C)c2O1)OC12C(=CC4CC1C(C)(C)OC2(C/C=C(/C)C(=O)OCCN1CCOCC1)C4=O)C3=O` (centres unmarked) [Example 1, 2-(Morpholin-4-yl)-ethyl gambogate] the EC50 (T-47D) was 303 nM, the “Caspase activity (Ratio) T-47D” value (T-47D) was 18 and the EC50 (DLD [1]) was 350 nM. The “Caspase activity (Ratio) DLD” value (DLD [1]) was 7.6.
With `CC(C)=CCCC1(C)C=Cc2c(O)c3c(c(CC=C(C)C)c2O1)OC12C(=CC4CC1C(C)(C)OC2(C/C=C(/C)C(=O)OCCN(C)C)C4=O)C3=O` (centres unmarked) [Example 2, 2-Dimethylaminoethyl gambogate] the GI50 (HEK293T) was 440 nM, the GI50 (T47D) was 187 nM and the GI50 (H1299) was 184 nM. For the same compound, the EC50 (T-47D) was 676 nM, the “Caspase activity (Ratio) T-47D” value (T-47D) was 17 and the GI50 (DLD [2]) was 173 nM. The GI50 (HEK293H) was 192 nM, the GI50 (MX-1) was 101 nM and the EC50 (DLD [1]) was 1040 nM. For the same compound, the “Caspase activity (Ratio) DLD” value (DLD [1]) was 7.2 and the GI50 (SW620) was 180 nM.
For `CC(C)=CCCC1(C)C=Cc2c(O)c3c(c(CC=C(C)C)c2O1)OC12C(=CC4CC1C(C)(C)OC2(C/C=C(/C)C(=O)NCCCN1CCN(C)CC1)C4=O)C3=O` (centres unmarked) [Example 3, N-[3-(4-Methyl-piperazin-1-yl)-propyl]gambogamide], the EC50 (T-47D) was 1660 nM, the “Caspase activity (Ratio) T-47D” value (T-47D) was 13 and the EC50 (DLD [1]) was 2120 nM. The “Caspase activity (Ratio) DLD” value (DLD [1]) was 5.8.
In the case of `CC(C)=CCCC1(C)C=Cc2c(O)c3c(c(CC=C(C)C)c2O1)OC12C(=CC4CC1C(C)(C)OC2(C/C=C(/C)C(=O)NCCCN1CCOCC1)C4=O)C3=O` (centres unmarked) [Example 4, N-(3-Morpholin-4-yl-propyl)gambogamide], the EC50 (T-47D) is reported as 638 nM, the “Caspase activity (Ratio) T-47D” value (T-47D) is reported as 15 and the EC50 (DLD [1]) is reported as 824 nM. The “Caspase activity (Ratio) DLD” value (DLD [1]) was 7.2.
`COC(=O)/C(C)=C\CC12OC(C)(C)C3CC(C=C4C(=O)c5c(O)c6c(c(CC=C(C)C)c5OC431)OC(C)(CCC(O)C(C)(C)O)C=C6)C2=O` (centres unmarked) [Example 5, Methyl 37,38-Dihydroxy-gambogate] was tested, and the EC50 (T-47D) was 750 nM, the “Caspase activity (Ratio) T-47D” value (T-47D) was 17 and the EC50 (DLD [1]) was 1290 nM. The “Caspase activity (Ratio) DLD” value (DLD [1]) was 7.2.
For `COC(=O)/C(C)=C\CC12OC(C)(C)C3CC(C1=O)C(N1CCOCC1)C1C(=O)c4c(O)c5c(c(CC=C(C)C)c4OC132)OC(C)(CCC(O)C(C)(C)O)C=C5` (centres unmarked) [Example 6, Methyl 37,38-Dihydroxy-9,10-dihydro-10-morpholinyl-gambogate], the EC50 (T-47D) was 1160 nM, the “Caspase activity (Ratio) T-47D” value (T-47D) was 17 and the EC50 (DLD [1]) was 2400 nM. The “Caspase activity (Ratio) DLD” value (DLD [1]) was 9.2.
For `COC(=O)/C(C)=C\CC12OC(C)(C)C3CC(C1=O)C(N1CCOCC1)C1C(=O)c4c(O)c5c(c(CC=C(C)C)c4OC132)OC(C)(CCC=O)C=C5` (centres unmarked) [Example 7, Methyl 20-Ethylaldehyde-9,10-dihydro-10-morpholinyl-morellinate], the EC50 (T-47D) was 1110 nM, the “Caspase activity (Ratio) T-47D” value (T-47D) was 16 and the EC50 (DLD [1]) was 1360 nM. For the same compound, the “Caspase activity (Ratio) DLD” value (DLD [1]) was 5.8.
